Source: patent US7892350B2, “Sacrificial agents for fly ash concrete” (Boral Material Technologies Inc., priority 2003, dated 2011)
Several values for one entry are separate records, joined by “and”; a condition that tells them apart may be missing. Equal entries are not always repeated.

What was measured:
[1] = Paste air entrainment, Minimum air protocol
Method in brief: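 Pastes of 400 g cementitious powder were hand-mixed 1 min, then machine-stirred 2 min at 25° C with the mixer 1.0 inch off the bottom and a 1.0 inch stroke. Water was set for a 115±5 mm mini-slump spread without additives. Air content came from the mass of a filled cylinder at 6, 36 and 66 min, with 1 min hand stirring before each reading.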

[2] = Air entrainment in fresh concrete (ASTM C 231-97); details: for Air: PCC cement concrete, no fly ash, no Air 40
[3] = Precipitation in slurry extract or leachate; type: physicochemical; details: pH 12.5, entries in parentheses
[4] = Paste air entrainment, Maximum air protocol; details: for Air entrained at 66 min: Air 30 (0.0125 wt %)/X/ButOH=1/4/4, X = the labelled sulfonated SA
Method in brief: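 Pastes of 400 g cementitious powder in water plus additives, hand-mixed 1 min then mixer-stirred 2 min at 25 °C; water/binder ratio set so additive-free paste gives 115±5 mm mini-slump spread at 10 min. Air content calculated from mass of paste filling a fixed-volume cylinder at 6, 36 and 66 min, paste at rest between readings and hand-stirred 1 min beforehand.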

[5] = Adsorption/precipitation of SA or AEA in 10 wt % aqueous fly ash or cement slurries at pH 12.5; type: physicochemical; details: initial SA 3 mM

Precipitation (wt % precipitated) ([3]; solution extracted from 10 wt % fly ash B1 (LOI 4.36%) slurry): 0 wt %
Precipitation (wt % precipitated) ([3]; solution extracted from 10 wt % fly ash C1, class C (LOI 1.62%) slurry): 31 wt %
Precipitation (wt % precipitated) ([3]; solution extracted from 10 wt % fly ash C2 (LOI 3.32%) slurry): 0 wt %
Precipitation (wt % precipitated) ([3]; solution extracted from 10 wt % fly ash M1 (LOI […]) slurry): 0 wt %
Precipitation (wt % precipitated) ([3]; solution extracted from 10 wt % fly ash M2 (LOI 5.34%) slurry): 0 wt %
Precipitation (wt % precipitated) ([3]; solution extracted from 10 wt % fly ash M3 (LOI 11.33%) slurry): 0 wt %
Precipitation (wt % precipitated) ([3]; solution extracted from 10 wt % fly ash N (LOI 0.30%) slurry): 0 wt %
Adsorption (wt % Adsorbed) ([5]; 10 wt % fly ash B1 (LOI 4.36%) slurry, Air 30/Air 40 0.105 wt %): 14 wt %
Adsorption (wt % Adsorbed) ([5]; 10 wt % fly ash C1, class C (LOI 1.62%) slurry, Air 30/Air 40 0.105 wt %): 84 wt %
Adsorption (wt % Adsorbed) ([5]; 10 wt % fly ash C2 (LOI 3.32%) slurry): 17 wt %
Adsorption (wt % Adsorbed) ([5]; 10 wt % fly ash M1 (LOI […]) slurry, Air 30/Air 40 0.105 wt %): 27 wt %
Adsorption (wt % Adsorbed) ([5]; 10 wt % fly ash M2 (LOI 5.34%) slurry, Air 30/Air 40 0.105 wt %): 13 wt %
Adsorption (wt % Adsorbed) ([5]; 10 wt % fly ash M3 (LOI 11.33%) slurry, Air 30/Air 40 0.105 wt %): 18 wt %
Adsorption (wt % Adsorbed) ([5]; 10 wt % fly ash N (LOI 0.30%) slurry): 26 wt %
Substance: Sodium Di-isopropopyl naphthalene sulfonate [ND]
Air entrained ([1]; 50:50 fly ash B1 (LOI 4.36%):PCA paste, 0.1 wt % Air 30 alone or with 0.05 wt % of the SA): 4 vol %
Air entrained ([1]; 50:50 fly ash C1 (LOI 1.62%):PCA paste, 0.1 wt % Air 30 alone or with 0.05 wt % of the SA): 4 vol %
Air entrained ([1]; 50:50 fly ash D (LOI […]):PCA paste, 0.1 wt % Air 30 alone or with 0.05 wt % of the SA): 3 vol %
Air entrained ([1]; 50:50 fly ash M1 (LOI […]):PCA paste, 0.1 wt % Air 30 alone or with 0.05 wt % of the SA): 5 vol %
Air entrained ([1]; 50:50 fly ash M2 (LOI 5.34%):PCA paste, 0.1 wt % Air 30 alone or with 0.05 wt % of the SA): 4 vol %
Air entrained ([1]; 50:50 fly ash M3 (LOI 11.33%):PCA paste, 0.1 wt % Air 30 alone or with 0.05 wt % of the SA): 4 vol %
Air entrained ([1]; 50:50 fly ash R (LOI […]):PCA paste, 0.1 wt % Air 30 alone or with 0.05 wt % of the SA): 3 vol %
Air entrained ([1]; PCA cement paste, 0.1% SA or AEA alone, Minimum air protocol): 3 vol %
Average of air entrained ([1]; over the fly ash:PCA pastes of Table 7, 0.1 wt % Air 30 alone or with 0.05 wt % of the SA): 4%
Air ([2]; ND alone 0.001 % CM): 2.3%
Air ([2]; ND alone 0.003 % CM): 4.1% and 3.1%
Air ([2]; ND alone 0.005 % CM): 4.6% and 4.8%
Air ([2]; ND alone 0.010 % CM): 4.6%
Air ([2]; ND alone 0.020 % CM): 3.9%
Air ([2]; ND alone 0.030 % CM): 3.8%
Air ([2]; ND alone 0.040 % CM): 3.9%
increase in air entrained above the control values ([2]; cement-only concrete without air entrainment agents, various dosages): 2-3%
Air entrained at 66 min ([4]; 50:50 fly ash B1 (LOI 4.36%):PCA paste): 17 vol %
Air entrained at 66 min ([4]; 50:50 fly ash D (LOI […]):PCA paste): 24 vol %
Air entrained at 66 min ([4]; 50:50 fly ash M2 (LOI 5.34%):PCA paste): 11 vol %
Air entrained ([4]; PCA cement paste, 0.0125% SA or AEA alone, Maximum air protocol): 7 vol %
Air entrained at 66 min ([4]; PCA paste, no fly ash): 23 vol %
air entrained (average) ([4]; fly ash:cement pastes, SA added at four (4) times the fixed Air 30 dosage (0.0125%)): 14%
